In the NIST ThermoML archive (doi:10.1021/je301283e):
± gives the expanded uncertainty stated by the source.

Conditions: Liquid, Vibrating tube method

CCCCCCCCCCCCCCCC [hexadecane]
mass density (313.15 K, 340 kPa): 759.52 ± 1.4 kg/m3
mass density (313.15 K, 690 kPa): 759.83 ± 1.4 kg/m3
mass density (313.15 K, 1030 kPa): 760.08 ± 1.4 kg/m3
mass density (313.15 K, 1380 kPa): 760.33 ± 1.4 kg/m3
mass density (313.15 K, 1720 kPa): 760.65 ± 1.4 kg/m3
mass density (313.15 K, 2070 kPa): 760.88 ± 1.4 kg/m3
mass density (313.15 K, 2410 kPa): 761.08 ± 1.4 kg/m3
mass density (313.15 K, 2760 kPa): 761.33 ± 1.4 kg/m3
mass density (313.15 K, 3100 kPa): 761.65 ± 1.4 kg/m3
mass density (313.15 K, 3450 kPa): 761.83 ± 1.4 kg/m3
mass density (313.15 K, 3800 kPa): 762.08 ± 1.4 kg/m3
mass density (313.15 K, 4140 kPa): 762.33 ± 1.4 kg/m3
mass density (313.15 K, 4480 kPa): 762.49 ± 1.4 kg/m3
mass density (313.15 K, 4830 kPa): 762.83 ± 1.4 kg/m3
mass density (313.15 K, 5170 kPa): 763.08 ± 1.4 kg/m3
mass density (313.15 K, 5510 kPa): 763.33 ± 1.4 kg/m3
mass density (313.15 K, 5860 kPa): 763.58 ± 1.4 kg/m3
mass density (313.15 K, 6200 kPa): 763.83 ± 1.4 kg/m3
mass density (313.15 K, 6550 kPa): 764.08 ± 1.4 kg/m3
mass density (313.15 K, 6890 kPa): 764.33 ± 1.4 kg/m3
mass density (313.15 K, 7240 kPa): 764.65 ± 1.4 kg/m3
mass density (313.15 K, 7580 kPa): 764.83 ± 1.4 kg/m3
mass density (313.15 K, 7930 kPa): 765.08 ± 1.4 kg/m3
mass density (313.15 K, 8270 kPa): 765.33 ± 1.4 kg/m3
mass density (313.15 K, 8620 kPa): 765.58 ± 1.4 kg/m3
mass density (313.15 K, 8960 kPa): 765.74 ± 1.4 kg/m3
mass density (313.15 K, 9310 kPa): 765.99 ± 1.4 kg/m3
mass density (313.15 K, 9650 kPa): 766.24 ± 1.4 kg/m3
mass density (313.15 K, 10000 kPa): 766.49 ± 1.4 kg/m3
mass density (313.15 K, 10340 kPa): 766.74 ± 1.4 kg/m3
mass density (313.15 K, 10690 kPa): 766.98 ± 1.4 kg/m3
mass density (313.15 K, 11030 kPa): 767.22 ± 1.4 kg/m3
mass density (313.15 K, 11380 kPa): 767.48 ± 1.4 kg/m3
mass density (333.15 K, 340 kPa): 746.8 ± 1.4 kg/m3
mass density (333.15 K, 690 kPa): 747.1 ± 1.4 kg/m3
mass density (333.15 K, 1030 kPa): 747.4 ± 1.4 kg/m3
mass density (333.15 K, 1380 kPa): 747.7 ± 1.4 kg/m3
mass density (333.15 K, 1720 kPa): 748 ± 1.4 kg/m3
mass density (333.15 K, 2070 kPa): 748.2 ± 1.4 kg/m3
mass density (333.15 K, 2410 kPa): 748.5 ± 1.4 kg/m3
mass density (333.15 K, 2760 kPa): 748.7 ± 1.4 kg/m3
mass density (333.15 K, 3100 kPa): 749 ± 1.4 kg/m3
mass density (333.15 K, 3450 kPa): 749.2 ± 1.4 kg/m3
mass density (333.15 K, 3800 kPa): 749.5 ± 1.4 kg/m3
mass density (333.15 K, 4140 kPa): 749.8 ± 1.4 kg/m3
mass density (333.15 K, 4480 kPa): 750 ± 1.4 kg/m3
mass density (333.15 K, 4830 kPa): 750.2 ± 1.4 kg/m3
mass density (333.15 K, 5170 kPa): 750.5 ± 1.4 kg/m3
mass density (333.15 K, 5510 kPa): 750.7 ± 1.4 kg/m3
mass density (333.15 K, 5860 kPa): 751 ± 1.4 kg/m3
mass density (333.15 K, 6200 kPa): 751.2 ± 1.4 kg/m3
mass density (333.15 K, 6550 kPa): 751.4 ± 1.4 kg/m3
mass density (333.15 K, 6890 kPa): 751.6 ± 1.4 kg/m3
mass density (333.15 K, 7240 kPa): 752 ± 1.4 kg/m3
mass density (333.15 K, 7580 kPa): 752.4 ± 1.4 kg/m3
mass density (333.15 K, 7930 kPa): 752.6 ± 1.4 kg/m3
mass density (333.15 K, 8270 kPa): 752.8 ± 1.4 kg/m3
mass density (333.15 K, 8620 kPa): 753 ± 1.4 kg/m3
mass density (333.15 K, 8960 kPa): 753.2 ± 1.4 kg/m3
mass density (333.15 K, 9310 kPa): 753.5 ± 1.4 kg/m3
mass density (333.15 K, 9650 kPa): 753.8 ± 1.4 kg/m3
mass density (333.15 K, 10000 kPa): 754 ± 1.4 kg/m3
mass density (333.15 K, 10340 kPa): 754.3 ± 1.4 kg/m3
mass density (333.15 K, 10690 kPa): 754.5 ± 1.4 kg/m3
mass density (333.15 K, 11030 kPa): 754.8 ± 1.4 kg/m3
mass density (333.15 K, 11380 kPa): 755 ± 1.4 kg/m3
mass density (353.15 K, 340 kPa): 736.2 ± 1.4 kg/m3
mass density (353.15 K, 690 kPa): 736.4 ± 1.4 kg/m3
mass density (353.15 K, 1030 kPa): 736.6 ± 1.4 kg/m3
mass density (353.15 K, 1380 kPa): 736.9 ± 1.4 kg/m3
mass density (353.15 K, 1720 kPa): 737.1 ± 1.4 kg/m3
mass density (353.15 K, 2070 kPa): 737.4 ± 1.4 kg/m3
mass density (353.15 K, 2410 kPa): 737.7 ± 1.4 kg/m3
mass density (353.15 K, 2760 kPa): 738 ± 1.4 kg/m3
mass density (353.15 K, 3100 kPa): 738.3 ± 1.4 kg/m3
mass density (353.15 K, 3450 kPa): 738.7 ± 1.4 kg/m3
mass density (353.15 K, 3800 kPa): 739.1 ± 1.4 kg/m3
mass density (353.15 K, 4140 kPa): 739.3 ± 1.4 kg/m3
mass density (353.15 K, 4480 kPa): 739.5 ± 1.4 kg/m3
mass density (353.15 K, 4830 kPa): 739.8 ± 1.4 kg/m3
mass density (353.15 K, 5170 kPa): 740 ± 1.4 kg/m3
mass density (353.15 K, 5510 kPa): 740.2 ± 1.4 kg/m3
